Measured values published in patent publication US5356781A, “Zymogen activation peptides (ZAP) in the diagnosis of disease” (Bioscience International, Inc., priority 1986, dated 1994).
Where no end group is shown, it is not given here.

Key:
[1] = tested on: affinity-purified Ca^2+ -dependent antibodies present in sera from rabbit 1 (anti-D4 K); assay: Solution phase competitive immunoradiometric assay: competition of binding to 125I-YD4 K, precipitation with second antibody; conditions: Ca2+-dependent antibodies from rabbit 1; FIG. 3; read-out: IC50, displacement of binding to 125I-YD4 K
Description: The relative affinities of affinity-purified Ca^2+ -dependent antibodies present in sera from rabbit 1 for various peptides was examined by determining competition of binding to ^125 I-YD4 K, measured by precipitation with a second antibody, donkey anti-rabbit. […] Some binding to Asp2 Lys was seen.
100 μl of a 1:250 dilution of anti-D4 K antiserum or a dilution of affinity-purified anti-D4 K antibodies in 50mM Tris-Hcl, 20mM CaCl2, 0.1% (w/v) BSA, pH 7.4 (RIA buffer) were added to 100 μl of ^125 I-YD4 K, (10,000 cpm) in RIA buffer containing 0.2% (v/v) normal rabbit serum in polystyrene tubes. Then 100 μl of solutions containing various concentrations of standard peptides or unknown plasma samples diluted in RIA-buffer were added, followed by 50 μl of donkey anti-rabbit Ig serum (Wellcome Biotechnology) diluted 1:10 with RIA-buffer with 0.2% normal rabbit serum. The mixtures were incubated 18 hours at 4° C., then the tubes were centrifuged at 3,000 rpm for 45 minutes at 4° C., and the supernatants aspirated. The radioactivity in the precipitates was determined in an LKB rack-gamma counter.

[2] = Incubation in human serum (immunoreactivity; Sephadex G-100 chromatography); assay type: in vitro ADME
Description: Immunoreactive D4 K was unaltered by incubation with undenatured human serum at 37° C. for 6 hours and 4° C. for 48 hours.

[3] = assay type: in vitro ADME
Description: The stability of APFD4 K and D4 K were examined by incubation with activated pancreatic juice, and the chemical identity of the product examined by high-voltage paper electrophoresis at pH 6.5. […] In three separate experiments, duplicate 65 to 75 mg portions of fresh dog pancreas were placed in modified Bank's medium and incubated in the presence or absence of 100 units enterokinase (Sigma Chem. Co. […]) at 37° C. for 4 hours and 22° C. for a further 20 hours. Duplicate 100 ul samples of culture medium supernatant were taken at intervals, diluted 2:1 with RIA buffer, boiled for 10 minutes and centrifuged. Supernatants were then stored at -20° C. prior to assay for D4 K peptides.

[4] = in vivo; conditions: rat, iv
Description: To determine the fate of circulating peptide, D4 K (0.28 ml, 1 mg/ml) was injected into the left femoral vein of rats under phenobarbital anaesthesia. Blood samples (0.5 ml) were collected every 15 minutes for 2 hours, and subjected to immunoassay.

[5] = biological target: anti-D4 K antibodies; assay: Displacement of 125I-YD4 K binding by trypsinogen with and without enteropeptidase activation; design: species or system rabbit
Description: Of great importance to the general principle of the PAP assay of which this is an example, and for the application of these specific anti-D4 K antibodies to the diagnosis of pancreatic disease was the finding that anti-D4 K antibodies were […] on the peptide, and were not displaced by trypsinogen (where the peptide is C-terminally bound to the protein) in concentrations of the zymogen of up to 100 μg/ml. Upon incubation of trypsinogen with enteropeptidase, however, released D4 K-containing activation peptides actively displaced the binding of synthetic ^125 I-YD4 K giving 50% displacement after activation of a 2 μg/ml solution of trypsinogen (FIG. 4). Trypsinogen in native dog pancreatic juice was also activated by enteropeptidase (FIG. 4) releasing immunoreactive D4 K peptides, giving 50% displacement in competitive solution-phase immunoassay after activation of 10^-8 L pancreatic juice. The novel D4 K-specific antibodies described here therefore also provide a new sensitive assay for enteropeptidase and trypsinogen applicable to fluids with endogenous trypsin inhibitors. […]

## N[C@@H](CC(=O)O)C(=O)O [Asp, Aspartic Acid]
[1]
  IC50: > 100 µM

## NCCCC[C@H](N)C(=O)O [Lys, Lysine]
[1]
  IC50: > 100 µM

## poly-Asp
[1]
  IC50: > 100 µM

## YDDDDK [YD4 K]
[2]; Sephadex G-100 chromatography after incubation in human serum
  complexing with a serum component: did not complex with a serum component

## APFDDDDK [APFD4 K, Ala-Pro-Phe-Asp-Asp-Asp-Asp-Lys]
[3]
  stability in activated pancreatic juice (identity of product): rapidly converted to free Ala, Pro and Phe and D4 K

## DDDDK [D4 K, Asp-Asp-Asp-Asp-Lys]
[4]
  half-life: ~15 min
[2]; 4° C. for 48 hours
  stability of immunoreactive peptide in undenatured human serum: unaltered
[2]; 37° C. for 6 hours
  stability of immunoreactive peptide in undenatured human serum: unaltered

B1: trypsinogen: zymogen in which the D4 K peptide is C-terminally bound to the protein (protein, UniProt P00760 18-246, looked up)
pro-form: VDDDDKIVGGYTCGANTVPYQVSLNSGYHFCGGSLINSQWVVSAAHCYKSGIQVRLGEDNINVVEGNEQFISASKSIVHPSYNSNTLNNDIMLIKLKSAASLNSRVASISLPTSCASAGTQCLISGWGNTKSSGTSYPDVLKCLKAPILSDSSCKSAYPGQITSNMFCAGYLEGGKDSCQGDSGGPVVCSGKLQGIVSWGSGCAQKNKPGVYTKVCNYVSWIKQTIASN
modifications: pro-form
[5]; after incubation of trypsinogen with enteropeptidase, FIG. 4
  concentration of solution giving 50% displacement of 125I-YD4 K: 2 µg/mL
[5]; trypsinogen without enteropeptidase activation
  concentration up to which antibodies were not displaced: > 100 µg/mL
